Experimental data published in ChEMBL document CHEMBL1201862, “PubChem BioAssay data set” (2004).
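Five compound concentrations were applied to cells in 96-well plates for 48 hours; endpoints were derived by simple linear interpolation of the resulting dose-response curve. GI50 = concentration required for 50% inhibition of growth.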 Active and inactive are the calls of the source. Rule as the data show it: active = GI50 up to about 1.1 µM and inactive = higher.

Experiments:
Test in all cases: inhibition of tumour cell growth, NCI panel, 48 h
OVCAR-8 = test system: OVCAR-8
SN12C = test system: SN12C
NCI-H23 = test system: NCI-H23
NCI-H522 = test system: NCI-H522
HCT-15 = test system: HCT-15
UACC-62 = test system: UACC-62
786-0 = test system: 786-0
HL-60 = test system: HL-60
EKVX = test system: EKVX
MDA-MB-435 = test system: MDA-MB-435
OVCAR-3 = test system: OVCAR-3
SNB-19 = test system: SNB-19
KM12 = test system: KM12
OVCAR-4 = test system: OVCAR-4
LOX IMVI = test system: LOX IMVI
MDA-N = test system: MDA-N
SF-268 = test system: SF-268
NCI/ADR-RES = test system: NCI/ADR-RES
SNB-75 = test system: SNB-75
HT-29 = test system: HT-29
HCC 2998 = test system: HCC 2998
TK-10 = test system: TK-10
A498 = test system: A498
U-251 = test system: U-251
T47D = test system: T47D
Malme-3M = test system: Malme-3M
CAKI-1 = test system: CAKI-1
OVCAR-5 = test system: OVCAR-5
SK-MEL-5 = test system: SK-MEL-5
HOP-92 = test system: HOP-92
ACHN = test system: ACHN
HOP-62 = test system: HOP-62
HCT-116 = test system: HCT-116
SK-MEL-28 = test system: SK-MEL-28
SK-MEL-2 = test system: SK-MEL-2
NCI-H226 = test system: NCI-H226
DU-145 = test system: DU-145
SF-295 = test system: SF-295
COLO 205 = test system: COLO 205
SK-OV-3 = test system: SK-OV-3
SW-620 = test system: SW-620
K562 = test system: K562
MCF7 = test system: MCF7
Hs-578T = test system: Hs-578T
SF-539 = test system: SF-539
NCI-H460 = test system: NCI-H460
PC-3 = test system: PC-3
SR = test system: SR
M14 = test system: M14
IGROV-1 = test system: IGROV-1
UACC-257 = test system: UACC-257
A549 = test system: A549
RXF 393 = test system: RXF 393
UO-31 = test system: UO-31
MDA-MB-231 = test system: MDA-MB-231

How did the GI50 (OVCAR-8) turn out when `CC1(C)OP(=O)(O)C=C1Sc1ccc([N+](=O)[O-])cc1[N+](=O)[O-]` was run?
Its GI50 is > 100 µM (inactive).

And the GI50 (SN12C)?
The GI50 was > 100 µM (inactive).

And the GI50 (NCI-H23)?
Its GI50 is > 100 µM (inactive).

What about the GI50 (NCI-H522) of the same compound?
The GI50 was > 100 µM (inactive).

And the GI50 (HCT-15)?
Its GI50 is greater than 100 µM.

And the GI50 (UACC-62)?
Its GI50 is > 100 µM (inactive).

What about the GI50 (786-0) of the same compound?
Its GI50 is > 100 µM (inactive).

And the GI50 (HL-60)?
Its GI50 is > 100 µM (inactive).

And the GI50 (EKVX)?
Its GI50 is > 100 µM (inactive).

And the GI50 (MDA-MB-435)?
The GI50 was > 100 µM (inactive).

What about the GI50 (OVCAR-3) of the same compound?
Its GI50 is > 100 µM (inactive).

And the GI50 (SNB-19)?
The GI50 was > 100 µM (inactive).

And the GI50 (KM12)?
The GI50 was > 100 µM (inactive).

And the GI50 (OVCAR-4)?
Its GI50 is > 100 µM (inactive).

And the GI50 (LOX IMVI)?
Its GI50 is > 100 µM (inactive).

And the GI50 (MDA-N)?
The GI50 was > 100 µM (inactive).

What about the GI50 (SF-268) of the same compound?
The GI50 was > 100 µM (inactive).

And the GI50 (NCI/ADR-RES)?
Its GI50 is > 100 µM (inactive).

What about the GI50 (SNB-75) of the same compound?
The GI50 was > 100 µM (inactive).

What about the GI50 (HT-29) of the same compound?
Its GI50 is 45.7 µM (inactive).

What about the GI50 (HCC 2998) of the same compound?
The GI50 was > 100 µM (inactive).

And the GI50 (TK-10)?
The GI50 was > 100 µM (inactive).

And the GI50 (A498)?
The GI50 was > 100 µM (inactive).

And the GI50 (U-251)?
The GI50 was > 100 µM (inactive).

And the GI50 (T47D)?
The GI50 was > 100 µM (inactive).

What about the GI50 (Malme-3M) of the same compound?
The GI50 was > 100 µM (inactive).

What about the GI50 (CAKI-1) of the same compound?
Its GI50 is > 100 µM (inactive).

What about the GI50 (OVCAR-5) of the same compound?
The GI50 was > 100 µM (inactive).

What about the GI50 (SK-MEL-5) of the same compound?
The GI50 was > 100 µM (inactive).

And the GI50 (HOP-92)?
The GI50 was > 100 µM (inactive).

What about the GI50 (ACHN) of the same compound?
Its GI50 is > 100 µM (inactive).

And the GI50 (HOP-62)?
The GI50 was > 100 µM (inactive).

What about the GI50 (HCT-116) of the same compound?
Its GI50 is > 100 µM (inactive).

What about the GI50 (SK-MEL-28) of the same compound?
The GI50 was > 100 µM (inactive).

What about the GI50 (SK-MEL-2) of the same compound?
Its GI50 is > 100 µM (inactive).

And the GI50 (NCI-H226)?
Its GI50 is > 100 µM (inactive).

What about the GI50 (DU-145) of the same compound?
Its GI50 is > 100 µM (inactive).

What about the GI50 (SF-295) of the same compound?
Its GI50 is > 100 µM (inactive).

And the GI50 (COLO 205)?
Its GI50 is > 100 µM (inactive).

And the GI50 (SK-OV-3)?
Its GI50 is > 100 µM (inactive).

And the GI50 (SW-620)?
Its GI50 is > 100 µM (inactive).

What about the GI50 (K562) of the same compound?
The GI50 was > 100 µM (inactive).

And the GI50 (MCF7)?
The GI50 was > 100 µM (inactive).

What about the GI50 (Hs-578T) of the same compound?
The GI50 was > 100 µM (inactive).

And the GI50 (SF-539)?
The GI50 was > 100 µM (inactive).

And the GI50 (NCI-H460)?
Its GI50 is > 100 µM (inactive).

What about the GI50 (PC-3) of the same compound?
The GI50 was > 100 µM (inactive).

What about the GI50 (SR) of the same compound?
The GI50 was > 100 µM (inactive).

And the GI50 (M14)?
The GI50 was > 100 µM (inactive).

And the GI50 (IGROV-1)?
The GI50 was > 100 µM (inactive).

And the GI50 (UACC-257)?
Its GI50 is > 100 µM (inactive).

And the GI50 (A549)?
Its GI50 is > 100 µM (inactive).

Which results are given for `Oc1cc(-c2ccc(Cl)cc2)cn2c1nc1ccccc12`?
GI50 (OVCAR-8): 17.6 µM (inactive); GI50 (SN12C): > 100 µM (inactive); GI50 (NCI-H23): > 100 µM (inactive); GI50 (NCI-H522): 2.09 µM (inactive); GI50 (HCT-15): > 100 µM; GI50 (UACC-62): 29.4 µM (inactive); GI50 (786-0): 25.8 µM (inactive); GI50 (RXF 393): > 100 µM (inactive); GI50 (HL-60): 2.66 µM (inactive); GI50 (EKVX): > 100 µM (inactive); GI50 (MDA-MB-435): 2.2 µM (inactive); GI50 (OVCAR-3): > 100 µM (inactive); GI50 (SNB-19): 52.4 µM (inactive); GI50 (KM12): 5.47 µM (inactive); GI50 (OVCAR-4): > 100 µM (inactive); GI50 (LOX IMVI): 1.88 µM (inactive); GI50 (MDA-N): 2.99 µM (inactive); GI50 (SF-268): > 100 µM (inactive); GI50 (NCI/ADR-RES): > 100 µM (inactive); GI50 (SNB-75): 16.1 µM (inactive); GI50 (HT-29): > 100 µM (inactive); GI50 (UO-31): > 100 µM (inactive); GI50 (TK-10): > 100 µM (inactive); GI50 (A498): > 100 µM (inactive); GI50 (U-251): 6.59 µM (inactive); GI50 (T47D): > 100 µM (inactive); GI50 (Malme-3M): > 100 µM (inactive); GI50 (CAKI-1): > 100 µM (inactive); GI50 (HOP-92): > 100 µM (inactive); GI50 (HOP-62): 31.3 µM (inactive); GI50 (HCT-116): > 100 µM (inactive); GI50 (SK-MEL-28): > 100 µM (inactive); GI50 (NCI-H226): > 100 µM (inactive); GI50 (DU-145): > 100 µM (inactive); GI50 (SF-295): > 100 µM (inactive); GI50 (COLO 205): > 100 µM (inactive); GI50 (SK-OV-3): > 100 µM (inactive); GI50 (SW-620): 6.46 µM (inactive); GI50 (K562): 2.3 µM (inactive); GI50 (MCF7): > 100 µM (inactive); GI50 (Hs-578T): 36.6 µM (inactive); GI50 (SF-539): > 100 µM (inactive); GI50 (NCI-H460): 5.21 µM (inactive); GI50 (PC-3): > 100 µM (inactive); GI50 (M14): > 100 µM (inactive); GI50 (IGROV-1): 9.55 µM (inactive); GI50 (MDA-MB-231): > 100 µM (inactive); GI50 (UACC-257): > 100 µM (inactive)
